Source: ChEMBL document CHEMBL1201862, “PubChem BioAssay data set” (2004)
Active and inactive are the calls of the source.

How the values were obtained:
[1] = molecular target: T1, Short transient receptor potential channel 4 (Mus musculus, UniProt Q9QUQ5); test: mouse TRPC4 channel activators, dose response, cell-based, HEK293 TRPC4/mu-opioid, Fluo-4 calcium (AID 434937); format: functional
T1 sequence (Q9QUQ5 whole entry): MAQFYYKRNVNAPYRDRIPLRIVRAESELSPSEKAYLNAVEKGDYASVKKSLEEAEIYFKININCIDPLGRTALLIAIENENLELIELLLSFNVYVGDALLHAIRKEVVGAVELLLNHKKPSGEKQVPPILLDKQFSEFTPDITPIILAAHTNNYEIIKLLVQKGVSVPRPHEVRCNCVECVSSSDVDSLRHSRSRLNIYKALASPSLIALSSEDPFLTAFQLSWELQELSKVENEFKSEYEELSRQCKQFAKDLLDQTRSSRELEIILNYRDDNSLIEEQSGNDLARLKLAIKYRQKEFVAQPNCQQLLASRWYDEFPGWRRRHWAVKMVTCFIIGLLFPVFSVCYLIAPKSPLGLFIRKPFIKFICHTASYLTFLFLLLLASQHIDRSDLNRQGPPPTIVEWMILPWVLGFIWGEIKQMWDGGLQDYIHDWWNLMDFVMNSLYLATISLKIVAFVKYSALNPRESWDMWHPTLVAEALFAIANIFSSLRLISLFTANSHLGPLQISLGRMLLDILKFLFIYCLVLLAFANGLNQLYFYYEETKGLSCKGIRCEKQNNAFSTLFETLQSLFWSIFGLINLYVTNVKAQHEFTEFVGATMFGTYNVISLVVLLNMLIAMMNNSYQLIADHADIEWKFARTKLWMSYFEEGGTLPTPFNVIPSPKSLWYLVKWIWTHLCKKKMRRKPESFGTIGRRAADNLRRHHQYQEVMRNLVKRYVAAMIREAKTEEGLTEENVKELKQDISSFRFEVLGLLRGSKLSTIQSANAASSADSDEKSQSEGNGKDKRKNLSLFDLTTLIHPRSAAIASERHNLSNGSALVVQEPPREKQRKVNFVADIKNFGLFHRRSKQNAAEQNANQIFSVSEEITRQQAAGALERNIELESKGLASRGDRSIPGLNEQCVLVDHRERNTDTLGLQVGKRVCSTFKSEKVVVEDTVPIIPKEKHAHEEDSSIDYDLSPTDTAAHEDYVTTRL

Leucine aminopeptidase = molecular target: T2, Leucine aminopeptidase (Plasmodium falciparum 3D7, UniProt Q8IL11); test: P. falciparum M17LAP inhibitors, primary screen, biochemical, fluorogenic H-Leu-NHMec substrate, 1536-well (AID 1619); format: functional
T2 sequence (Q8IL11 whole entry): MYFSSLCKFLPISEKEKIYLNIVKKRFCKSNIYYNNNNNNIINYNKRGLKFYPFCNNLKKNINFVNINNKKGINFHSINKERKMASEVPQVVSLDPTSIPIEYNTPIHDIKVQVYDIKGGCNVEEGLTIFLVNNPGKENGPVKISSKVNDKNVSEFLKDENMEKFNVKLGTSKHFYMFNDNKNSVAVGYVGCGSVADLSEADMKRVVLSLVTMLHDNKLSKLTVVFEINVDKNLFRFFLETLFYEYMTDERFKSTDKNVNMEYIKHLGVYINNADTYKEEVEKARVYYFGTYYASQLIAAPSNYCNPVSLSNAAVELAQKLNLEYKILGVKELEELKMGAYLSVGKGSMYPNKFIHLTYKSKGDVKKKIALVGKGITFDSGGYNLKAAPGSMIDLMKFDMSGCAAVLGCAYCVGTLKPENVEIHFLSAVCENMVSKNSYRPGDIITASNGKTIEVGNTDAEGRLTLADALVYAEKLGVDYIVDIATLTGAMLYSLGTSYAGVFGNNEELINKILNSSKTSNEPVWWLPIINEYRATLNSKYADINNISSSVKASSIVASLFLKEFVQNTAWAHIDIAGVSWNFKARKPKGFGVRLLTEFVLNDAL

[2] = molecular target: G-protein coupled receptor 55 (Homo sapiens, UniProt Q9Y2T6); test: GPR55 antagonists blocking LPI-driven arrestin recruitment, primary screen, imaging, U2OS, beta-arrestin-GFP, LPI agonist (AID 2013); format: functional;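 note: antagonist potency measured as reduced agonist-driven arrestin aggregation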
Sequence of G-protein coupled receptor 55 (Q9Y2T6 whole entry): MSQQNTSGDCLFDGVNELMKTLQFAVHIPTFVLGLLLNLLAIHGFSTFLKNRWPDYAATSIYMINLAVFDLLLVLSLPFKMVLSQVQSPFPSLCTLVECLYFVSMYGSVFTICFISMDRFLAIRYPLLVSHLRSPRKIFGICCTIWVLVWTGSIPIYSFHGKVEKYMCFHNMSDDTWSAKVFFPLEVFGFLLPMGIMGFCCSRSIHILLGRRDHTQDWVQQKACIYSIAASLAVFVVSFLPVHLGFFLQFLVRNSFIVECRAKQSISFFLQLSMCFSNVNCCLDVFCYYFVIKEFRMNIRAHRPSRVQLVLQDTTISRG

HEK293 [3] = test: cells; format: functional, cell-based; details: Homo sapiens
HEK293 [4] = test: cells; format: functional, cell-based; details: Homo sapiens; remark: listed apart in the source
HEK293 [5] = test: NOD2 signaling inhibitors in MDP-stimulated cells, cell-based, uHTS, luminescence (AID 2001); format: functional; details: Homo sapiens
HEK293 [6] = test: NOD1 signaling inhibitors, primary screen, cell-based, luminescence, uHTS (AID 1578); format: functional; details: Homo sapiens
[7] = molecular target: DNA dC->dU-editing enzyme APOBEC-3A (Homo sapiens, UniProt P31941); test: APOBEC3A DNA deaminase inhibitors, dose response, biochemical (AID 504722); format: functional
Sequence of DNA dC->dU-editing enzyme APOBEC-3A (P31941 whole entry): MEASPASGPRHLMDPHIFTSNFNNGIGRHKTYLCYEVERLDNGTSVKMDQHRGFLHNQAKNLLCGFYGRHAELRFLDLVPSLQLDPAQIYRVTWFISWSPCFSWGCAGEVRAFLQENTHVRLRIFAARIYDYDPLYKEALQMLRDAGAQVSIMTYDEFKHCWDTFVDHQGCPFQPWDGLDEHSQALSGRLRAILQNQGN

[8] = molecular target: T3, Rac GTPase-activating protein 1 (Homo sapiens, UniProt Q9H0H5); test: MgcRacGAP GTPase-activating activity inhibitors, confirmation, biochemical, ADP Hunter fluorescence, primary and confirmatory (AID 624330); format: functional
T3 sequence (Q9H0H5 whole entry): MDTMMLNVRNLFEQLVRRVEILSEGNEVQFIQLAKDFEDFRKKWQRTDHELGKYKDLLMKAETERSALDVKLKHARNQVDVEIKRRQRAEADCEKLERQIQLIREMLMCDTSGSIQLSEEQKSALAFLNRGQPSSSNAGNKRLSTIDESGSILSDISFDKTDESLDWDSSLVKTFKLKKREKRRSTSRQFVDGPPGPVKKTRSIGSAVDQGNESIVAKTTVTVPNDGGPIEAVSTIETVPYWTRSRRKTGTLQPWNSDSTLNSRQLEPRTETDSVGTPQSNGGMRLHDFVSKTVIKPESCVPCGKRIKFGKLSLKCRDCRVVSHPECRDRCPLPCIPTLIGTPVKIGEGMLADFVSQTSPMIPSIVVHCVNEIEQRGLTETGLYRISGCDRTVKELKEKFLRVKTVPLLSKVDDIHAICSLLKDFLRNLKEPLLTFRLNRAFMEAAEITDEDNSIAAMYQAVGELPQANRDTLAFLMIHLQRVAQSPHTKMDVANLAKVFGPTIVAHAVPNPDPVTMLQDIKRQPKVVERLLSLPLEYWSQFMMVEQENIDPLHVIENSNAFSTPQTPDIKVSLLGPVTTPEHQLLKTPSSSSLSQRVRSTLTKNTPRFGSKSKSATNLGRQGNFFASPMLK

[9] = molecular target: DNA dC->dU-editing enzyme APOBEC-3G (Homo sapiens, UniProt Q9HC16); test: Dose Response confirmation of small molecule APOBEC3G DNA Deaminase Inhibitors via a fluorescence-based single-stranded DNA deaminase assay. [Related pubchem assays (depositor defined):AID493012, AID493028]; format: functional
Sequence of DNA dC->dU-editing enzyme APOBEC-3G (Q9HC16 whole entry): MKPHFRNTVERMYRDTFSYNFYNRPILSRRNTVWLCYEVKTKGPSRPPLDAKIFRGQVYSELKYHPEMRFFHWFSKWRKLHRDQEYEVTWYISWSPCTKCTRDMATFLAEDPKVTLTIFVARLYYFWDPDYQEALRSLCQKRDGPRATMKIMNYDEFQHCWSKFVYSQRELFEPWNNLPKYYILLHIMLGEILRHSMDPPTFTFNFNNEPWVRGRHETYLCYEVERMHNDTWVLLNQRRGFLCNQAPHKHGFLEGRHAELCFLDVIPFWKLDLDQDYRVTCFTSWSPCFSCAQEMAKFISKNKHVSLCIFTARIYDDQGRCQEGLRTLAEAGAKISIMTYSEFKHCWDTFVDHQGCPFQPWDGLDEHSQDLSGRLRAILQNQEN

[10] = molecular target: Glucose-6-phosphate 1-dehydrogenase (Homo sapiens, UniProt P11413); test: human G6PD enzyme inhibitors, dose response, selectivity assay for P. falciparum G6PD inhibitor project, biochemical, fluorescence (AID 504792); format: functional
Sequence of Glucose-6-phosphate 1-dehydrogenase (P11413 whole entry): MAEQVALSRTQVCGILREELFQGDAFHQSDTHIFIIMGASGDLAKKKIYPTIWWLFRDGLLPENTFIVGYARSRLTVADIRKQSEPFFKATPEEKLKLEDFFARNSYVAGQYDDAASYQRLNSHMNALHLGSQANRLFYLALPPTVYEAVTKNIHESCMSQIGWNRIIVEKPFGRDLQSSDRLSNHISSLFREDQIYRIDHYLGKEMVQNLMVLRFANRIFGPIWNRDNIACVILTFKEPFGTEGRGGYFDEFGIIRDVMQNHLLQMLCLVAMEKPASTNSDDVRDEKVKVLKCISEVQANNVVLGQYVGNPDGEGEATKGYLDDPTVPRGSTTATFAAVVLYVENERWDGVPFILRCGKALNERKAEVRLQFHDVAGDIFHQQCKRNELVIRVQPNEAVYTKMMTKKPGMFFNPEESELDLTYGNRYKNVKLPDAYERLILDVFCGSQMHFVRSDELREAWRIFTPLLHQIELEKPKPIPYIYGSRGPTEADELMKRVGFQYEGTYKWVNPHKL

Protein RecA = molecular target: T4, Protein RecA (Mycobacterium tuberculosis, UniProt P9WHJ3); test: Fluorescence Cell-Free Homogeneous Dose Retest to Identify Inhibitors of RecA-Intein Splicing Activity. [Related pubchem assays (depositor defined):AID2097, AID2223, AID489010, AID492950]; format: functional
T4 sequence (P9WHJ3 whole entry): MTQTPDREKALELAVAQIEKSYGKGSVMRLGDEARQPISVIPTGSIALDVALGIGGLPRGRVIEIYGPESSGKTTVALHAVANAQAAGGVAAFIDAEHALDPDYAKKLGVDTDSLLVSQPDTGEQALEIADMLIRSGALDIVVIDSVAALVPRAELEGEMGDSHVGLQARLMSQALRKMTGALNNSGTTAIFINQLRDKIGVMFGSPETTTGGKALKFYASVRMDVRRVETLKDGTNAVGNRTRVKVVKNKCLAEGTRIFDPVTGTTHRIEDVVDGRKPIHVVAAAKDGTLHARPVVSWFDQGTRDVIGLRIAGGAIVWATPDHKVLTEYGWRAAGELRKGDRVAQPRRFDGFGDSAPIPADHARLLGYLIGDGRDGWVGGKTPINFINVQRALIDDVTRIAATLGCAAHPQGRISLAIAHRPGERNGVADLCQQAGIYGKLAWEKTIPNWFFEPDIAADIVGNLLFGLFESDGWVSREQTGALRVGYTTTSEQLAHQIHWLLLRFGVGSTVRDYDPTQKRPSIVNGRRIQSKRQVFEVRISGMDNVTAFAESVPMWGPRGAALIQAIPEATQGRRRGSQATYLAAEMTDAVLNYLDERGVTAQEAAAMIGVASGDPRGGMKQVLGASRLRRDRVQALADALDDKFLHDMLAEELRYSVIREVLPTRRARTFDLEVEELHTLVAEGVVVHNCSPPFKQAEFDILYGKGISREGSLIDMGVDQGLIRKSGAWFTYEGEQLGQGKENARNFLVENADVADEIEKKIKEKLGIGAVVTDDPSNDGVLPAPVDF

[11] = molecular target: T5, Replicative DNA helicase DnaB (Mycobacterium tuberculosis, UniProt P9WMR3); test: DnaB intein splicing inhibitors, dose response, biochemical, cell-free fluorescence (AID 449749); format: functional
T5 sequence (P9WMR3 whole entry): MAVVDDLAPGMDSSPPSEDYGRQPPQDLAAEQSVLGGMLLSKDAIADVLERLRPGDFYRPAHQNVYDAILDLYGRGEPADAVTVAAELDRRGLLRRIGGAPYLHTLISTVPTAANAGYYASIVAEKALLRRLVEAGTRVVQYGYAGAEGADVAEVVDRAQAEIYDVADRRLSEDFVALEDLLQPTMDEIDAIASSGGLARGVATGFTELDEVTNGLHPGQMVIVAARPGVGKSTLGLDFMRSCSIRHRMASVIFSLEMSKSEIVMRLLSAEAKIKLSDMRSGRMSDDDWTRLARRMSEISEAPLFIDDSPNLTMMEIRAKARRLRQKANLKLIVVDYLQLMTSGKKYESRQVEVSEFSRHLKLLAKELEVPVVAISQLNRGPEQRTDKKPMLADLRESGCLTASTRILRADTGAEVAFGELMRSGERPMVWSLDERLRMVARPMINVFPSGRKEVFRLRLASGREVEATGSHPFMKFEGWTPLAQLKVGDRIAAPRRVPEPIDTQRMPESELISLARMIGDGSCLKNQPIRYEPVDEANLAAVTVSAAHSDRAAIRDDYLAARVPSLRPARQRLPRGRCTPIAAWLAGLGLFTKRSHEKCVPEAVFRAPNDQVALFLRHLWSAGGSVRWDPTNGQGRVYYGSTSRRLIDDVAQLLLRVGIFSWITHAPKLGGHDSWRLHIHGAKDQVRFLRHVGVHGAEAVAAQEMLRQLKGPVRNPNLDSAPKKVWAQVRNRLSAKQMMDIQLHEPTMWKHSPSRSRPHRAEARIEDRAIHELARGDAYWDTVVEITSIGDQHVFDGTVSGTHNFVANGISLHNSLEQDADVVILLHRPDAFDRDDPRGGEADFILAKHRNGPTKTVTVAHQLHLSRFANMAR

[12] = molecular target: FAD-linked sulfhydryl oxidase ALR (Homo sapiens, UniProt P55789); test: inhibitors of human ALR sulfhydryl oxidase, dose response, biochemical, H2O2 detection, luminescence, cherry-pick (AID 493248)
Sequence of FAD-linked sulfhydryl oxidase ALR (P55789 whole entry): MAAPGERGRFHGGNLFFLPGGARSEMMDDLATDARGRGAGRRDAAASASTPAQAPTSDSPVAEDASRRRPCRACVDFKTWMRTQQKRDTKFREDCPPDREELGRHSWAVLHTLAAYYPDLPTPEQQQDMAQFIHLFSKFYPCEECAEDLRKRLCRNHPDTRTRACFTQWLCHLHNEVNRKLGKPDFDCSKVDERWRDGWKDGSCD

For `CC(C)(C)c1cc(Cl)ccc1OCCn1ccnc1`, the EC50 [1] was 5.96 µM (active).

For `NCCCNC(=O)c1cc2ccccc2[nH]1`, the EC50 [1] was 7.5 µM (active).

With `CCc1nnc(NS(=O)(=O)c2ccc(NC(=O)/C=C/c3ccc(OC)cc3OC)cc2)s1` the IC50 (Leucine aminopeptidase) was 7.96 µM (active) and the IC50 [2] was 1.44 µM (active).

In the case of `Oc1nc(CCl)nc2cc(-c3ccc(F)cc3)sc12`, the IC50 (HEK293 [3]) is reported as 12.6 µM (active), the IC50 (HEK293 [4]) is reported as > 20 µM (inactive) and the IC50 (HEK293 [5]) is reported as 15.2 µM (inactive). For the same compound, the EC50 (HEK293 [6]) was 13.1 µM (active).

`COC(=O)c1ccccc1NC(=S)NC(NC(=O)c1ccco1)C(Cl)(Cl)Cl` (stereo unspecified) was tested, and the IC50 [2] was 8.08 µM (active).

`Cn1c(=O)c2ccccc2n2c(S)nnc12` was tested, and the IC50 [7] was > 100 µM (inactive), the IC50 [8] was 19.9 µM (active) and the IC50 [9] was 3.8 µM (active).

In the case of `O=S(=O)(Nc1c(O)ccc2ccccc12)c1ccccc1`, the IC50 [10] is reported as 29.9 µM (inactive), the EC50 (Protein RecA) is reported as 1.51 µM (active) and the AC50 [11] is reported as 5.09 µM (active).

In the case of `COc1ccc(/C=N/n2c(S)nnc2-c2[nH]nc3c2CCC3)c(OC)c1OC`, the IC50 [7] is reported as > 100 µM (inactive), the IC50 [8] is reported as 69.9 µM (active) and the IC50 [9] is reported as 4.64 µM (active).

In the case of `Sc1nnc(C2CCCCC2)n1/N=C/c1ccccn1`, the IC50 [7] is reported as > 100 µM (inactive), the IC50 [9] is reported as 2.23 µM (active) and the AC50 [12] is reported as 1.04 µM (active).
